≈ marks a conversion by molar mass, not a printed value.
These compounds were tested on M tb H37Rv (assay: MIC determination against M tb H37Rv (green fluorescent protein reporter assay; MIC-MABA)). Conditions: Mycobacterium tuberculosis, H37RV, 240 h, read-out: M. TB H37Rv: MIC-MABA: MIC, M. tb H37Rv; 7H9 broth; 10 days exposure; MIC = lowest concentration inhibiting fluorescence by 90%.
Type: cell-based, Mycobacterium tuberculosis
Compound Cc1nc2[nH]c(C(=O)N[C@H]3C[C@H]4C[C@@H]([C@@H]3C)C4(C)C)cc2c(F)c1F [MPL-066, 4,5-difluoro-6-methyl-N-[(1S,2S,3S,5R)-2,6,6-trimethylnorpinan-3-yl]-1H-pyrrolo[2,3-b]pyridine-2-carboxamide] has an MIC of 0.012 µg/mL (≈ 0.0345 µM). Cc1nc2[nH]c(C(=O)N[C@H]3C[C@H]4C[C@@H]([C@@H]3C)C4(C)C)cc2c(F)c1Cl [MPL-068, 5-chloro-4-fluoro-6-methyl-N-[(1S,2S,3S,5R)-2,6,6-trimethylnorpinan-3-yl]-1H-pyrrolo[2,3-b]pyridine-2-carboxamide] was tested, and the MIC was 0.046 µg/mL (≈ 0.126 µM). For Cc1nc2[nH]c(C(=O)NC3CCC(C)(C)CC3)cc2c(F)c1Cl [MPL-069, 5-chloro-N-(4,4-dimethylcyclohexyl)-4-fluoro-6-methyl-1H-pyrrolo[2,3-b]pyridine-2-carboxamide], the MIC was 0.0099 µg/mL (≈ 0.0293 µM). Compound Cc1cc2cc(C(=O)N[C@H]3C[C@H]4C[C@@H]([C@@H]3C)C4(C)C)[nH]c2nc1C [MPL-070, 5,6-dimethyl-N-((1S,2S,3S,5R)-2,6,6-trimethylbicyclo[3.1.1]heptan-3-yl)-1H-pyrrolo[2,3-b]pyridine-2-carboxamide] has an MIC of 0.49 µg/mL (≈ 1.51 µM). Cc1cc2cc(C(=O)NC3CCCCCCC3)[nH]c2nc1C [MPL-071, N-cyclooctyl-5,6-dimethyl-1H-pyrrolo[2,3-b]pyridine-2-carboxamide] was tested, and the MIC was 0.049 µg/mL (≈ 0.164 µM). For C[C@@H]1[C@@H](NC(=O)c2cc3c(F)cncc3[nH]2)C[C@H]2C[C@@H]1C2(C)C [MPL-092, 4-fluoro-N-[(1S,2S,3S,5R)-2,6,6-trimethylnorpinan-3-yl]-1H-pyrrolo[2,3-c]pyridine-2-carboxamide], the MIC was 1.2 µg/mL (≈ 3.8 µM). Compound O=C(NC1CCCCCCC1)c1cc2c(F)cncc2[nH]1 [MPL-093, N-cyclooctyl-4-fluoro-1H-pyrrolo[2,3-c]pyridine-2-carboxamide] has an MIC of 1.1 µg/mL (≈ 3.8 µM). Work on CC1(C)CCC(NC(=O)c2cc3c(F)cncc3[nH]2)CC1 [MPL-094, N-(4,4-dimethylcyclohexyl)-4-fluoro-1H-pyrrolo[2,3-c]pyridine-2-carboxamide] yielded an MIC of 0.049 µg/mL (≈ 0.169 µM). Work on C[C@@H]1[C@@H](NC(=O)c2cc3c(C#N)cncc3[nH]2)C[C@H]2C[C@@H]1C2(C)C [MPL-095, 4-cyano-N-[(1S,2S,3S,5R)-2,6,6-trimethylnorpinan-3-yl]-1H-pyrrolo[2,3-c]pyridine-2-carboxamide] yielded an MIC of 1.5 µg/mL (≈ 4.65 µM). Work on N#Cc1cncc2[nH]c(C(=O)NC3CCCCCCC3)cc12 [MPL-096, 4-cyano-N-cyclooctyl-1H-pyrrolo[2,3-c]pyridine-2-carboxamide] yielded an MIC of 0.47 µg/mL (≈ 1.59 µM). CC1(C)CCC(NC(=O)c2cc3c(C#N)cncc3[nH]2)CC1 [MPL-097, 4-cyano-N-(4,4-dimethylcyclohexyl)-1H-pyrrolo[2,3-c]pyridine-2-carboxamide] gave an MIC of 0.16 µg/mL (≈ 0.54 µM). C[C@@H]1[C@@H](NC(=O)c2cc3c(C(F)(F)F)cncc3[nH]2)C[C@H]2C[C@@H]1C2(C)C [MPL-100, 4-(trifluoromethyl)-N-[(1S,2S,3S,5R)-2,6,6-trimethylnorpinan-3-yl]-1H-pyrrolo[2,3-c]pyridine-2-carboxamide] showed an MIC of 0.24 µg/mL (≈ 0.657 µM). CC1(C)C2CCC1(C)C(NC(=O)c1cc3c(F)ccnc3[nH]1)C2 (centres unmarked) [MPL-106, 4-fluoro-N-(1,7,7-trimethylnorbornan-2-yl)-1H-pyrrolo[2,3-b]pyridine-2-carboxamide] gave an MIC of 0.16 µg/mL (≈ 0.507 µM). CC1(C)C2CCC1(C)C(NC(=O)c1cc3c(C(F)(F)F)ccnc3[nH]1)C2 (centres unmarked) [MPL-108, 4-(trifluoromethyl)-N-(1,7,7-trimethylnorbornan-2-yl)-1H-pyrrolo[2,3-b]pyridine-2-carboxamide] gave an MIC of 0.02 µg/mL (≈ 0.0547 µM). For C[Si]1(C)CCC(NC(=O)c2cc3c(F)ccnc3[nH]2)CC1 [MPL-109, N-(1,1-dimethylsilinan-4-yl)-4-fluoro-1H-pyrrolo[2,3-b]pyridine-2-carboxamide], the MIC was 0.022 µg/mL (≈ 0.072 µM). For C[Si]1(C)CCC(NC(=O)c2cc3c(C#N)ccnc3[nH]2)CC1 [MPL-110, 4-cyano-N-(1,1-dimethylsilinan-4-yl)-1H-pyrrolo[2,3-b]pyridine-2-carboxamide], the MIC was 0.022 µg/mL (≈ 0.0704 µM). In the case of C[Si]1(C)CCC(NC(=O)c2cc3c(C(F)(F)F)ccnc3[nH]2)CC1 [MPL-111, N-(1,1-dimethylsilinan-4-yl)-4-(trifluoromethyl)-1H-pyrrolo[2,3-b]pyridine-2-carboxamide], the MIC is reported as 0.0095 µg/mL (≈ 0.0267 µM). With Cc1cc2cc(C(=O)N[C@H]3C[C@H]4C[C@@H]([C@@H]3C)C4(C)C)[nH]c2c(F)n1 [MPL-122, 7-fluoro-5-methyl-N-[(1S,2S,3S,5R)-2,6,6-trimethylnorpinan-3-yl]-1H-pyrrolo[2,3-c]pyridine-2-carboxamide] the MIC was 3.1 µg/mL (≈ 9.41 µM). Work on Cc1cc2cc(C(=O)NC3CCC(C)(C)CC3)[nH]c2cn1 [MPL-125, N-(4,4-dimethylcyclohexyl)-5-methyl-1H-pyrrolo[2,3-c]pyridine-2-carboxamide] yielded an MIC of 3.1 µg/mL (≈ 10.9 µM). In the case of C[C@@H]1[C@@H](NC(=O)c2cc3cc(Cl)ncc3[nH]2)C[C@H]2C[C@@H]1C2(C)C [MPL-126, 5-chloro-N-[(1S,2S,3S,5R)-2,6,6-trimethylnorpinan-3-yl]-1H-pyrrolo[2,3-c]pyridine-2-carboxamide], the MIC is reported as 3.1 µg/mL (≈ 9.34 µM). C[C@@H]1[C@@H](NC(=O)c2cc3cc(F)ncc3[nH]2)C[C@H]2C[C@@H]1C2(C)C [MPL-128, 5-fluoro-N-[(1S,2S,3S,5R)-2,6,6-trimethylnorpinan-3-yl]-1H-pyrrolo[2,3-c]pyridine-2-carboxamide] showed an MIC of 2.3 µg/mL (≈ 7.29 µM). In the case of CC1(C)CCC(NC(=O)c2cc3cc(F)ncc3[nH]2)CC1 [MPL-129, N-(4,4-dimethylcyclohexyl)-5-fluoro-1H-pyrrolo[2,3-c]pyridine-2-carboxamide], the MIC is reported as 0.5 µg/mL (≈ 1.73 µM). Work on Cc1nc(F)cc2cc(C(=O)N[C@H]3C[C@H]4C[C@@H]([C@@H]3C)C4(C)C)[nH]c12 [MPL-134, 5-fluoro-7-methyl-N-[(1S,2S,3S,5R)-2,6,6-trimethylnorpinan-3-yl]-1H-pyrrolo[2,3-c]pyridine-2-carboxamide] yielded an MIC of 3.1 µg/mL (≈ 9.41 µM). C[C@@H]1[C@@H](NC(=O)c2cc3c(F)c(Cl)ncc3[nH]2)C[C@H]2C[C@@H]1C2(C)C [MPL-138, 5-chloro-4-fluoro-N-[(1S,2S,3S,5R)-2,6,6-trimethylnorpinan-3-yl]-1H-pyrrolo[2,3-c]pyridine-2-carboxamide] showed an MIC of 2.9 µg/mL (≈ 8.29 µM). With CC1(C)CCC(NC(=O)c2cc3c(F)c(Cl)ncc3[nH]2)CC1 [MPL-139, 5-chloro-N-(4,4-dimethylcyclohexyl)-4-fluoro-1H-pyrrolo[2,3-c]pyridine-2-carboxamide] the MIC was 0.24 µg/mL (≈ 0.741 µM). Cc1ncc2[nH]c(C(=O)N[C@H]3C[C@H]4C[C@@H]([C@@H]3C)C4(C)C)cc2c1F [MPL-140, 4-fluoro-5-methyl-N-[(1S,2S,3S,5R)-2,6,6-trimethylnorpinan-3-yl]-1H-pyrrolo[2,3-c]pyridine-2-carboxamide] showed an MIC of 1.3 µg/mL (≈ 3.95 µM). Work on Cc1ncc2[nH]c(C(=O)NC3CCC(C)(C)CC3)cc2c1F [MPL-141, N-(4,4-dimethylcyclohexyl)-4-fluoro-5-methyl-1H-pyrrolo[2,3-c]pyridine-2-carboxamide] yielded an MIC of 0.29 µg/mL (≈ 0.956 µM). O=C(NC1CC2CCC(C2)C1)c1cc2c(F)ccnc2[nH]1 (centres unmarked) [MPL-157, N-(3-bicyclo[3.2.1]octanyl)-4-fluoro-1H-pyrrolo[2,3-b]pyridine-2-carboxamide] showed an MIC of 2.6 µg/mL (≈ 9.05 µM). With CC1(C)C=CC(NC(=O)c2cc3c(F)ccnc3[nH]2)CC1 (centres unmarked) [MPL-160, N-(4,4-dimethylcyclohex-2-en-1-yl)-4-fluoro-1H-pyrrolo[2,3-b]pyridine-2-carboxamide] the MIC was 0.77 µg/mL (≈ 2.68 µM). Compound O=C(NC1CCC2(CC1)CC2)c1cc2c(Cl)cncc2[nH]1 [MPL-163, 4-chloro-N-spiro[2.5]octan-6-yl-1H-pyrrolo[2,3-c]pyridine-2-carboxamide] has an MIC of 0.64 µg/mL (≈ 2.11 µM). O=C(NC1CCC2(CC1)CC2(F)F)c1cc2c(Cl)cncc2[nH]1 (centres unmarked) [MPL-164, 4-chloro-N-(1,1-difluorospiro[2.5]octan-6-yl)-1H-pyrrolo[2,3-c]pyridine-2-carboxamide] gave an MIC of 0.35 µg/mL (≈ 1.03 µM). Work on O=C(NC1CC2CCC(C2)C1)c1cc2c(Cl)cncc2[nH]1 (centres unmarked) [MPL-166, N-(3-bicyclo[3.2.1]octanyl)-4-chloro-1H-pyrrolo[2,3-c]pyridine-2-carboxamide] yielded an MIC of 0.39 µg/mL (≈ 1.28 µM). O=C(NC12CCC(CC1)CC2)c1cc2c(Cl)cncc2[nH]1 [MPL-170, N-(4-bicyclo[2.2.2]octanyl)-4-chloro-1H-pyrrolo[2,3-c]pyridine-2-carboxamide] showed an MIC of 0.1 µg/mL (≈ 0.329 µM). For Cc1c(C(=O)N[C@H]2C[C@H]3C[C@@H]([C@@H]2C)C3(C)C)[nH]c2nccc(F)c12 [MPL-174, 4-fluoro-3-methyl-N-[(1S,2S,3S,5R)-2,6,6-trimethylnorpinan-3-yl]-1H-pyrrolo[2,3-b]pyridine-2-carboxamide], the MIC was 0.19 µg/mL (≈ 0.577 µM). CC1(C)C2CCC1(C)C(NC(=O)c1cc3c(Cl)cncc3[nH]1)C2 (centres unmarked) [MPL-189, 4-chloro-N-(1,7,7-trimethylnorbornan-2-yl)-1H-pyrrolo[2,3-c]pyridine-2-carboxamide] showed an MIC of 0.095 µg/mL (≈ 0.286 µM). CC1(C)C2CCC1(C)C(NC(=O)c1cc3c(C(F)(F)F)cncc3[nH]1)C2 (centres unmarked) [MPL-190, 4-(trifluoromethyl)-N-(1,7,7-trimethylnorbornan-2-yl)-1H-pyrrolo[2,3-c]pyridine-2-carboxamide] was tested, and the MIC was 0.24 µg/mL (≈ 0.657 µM). In the case of C[Si]1(C)CCC(NC(=O)c2cc3c(F)cncc3[nH]2)CC1 [MPL-191, N-(1,1-dimethylsilinan-4-yl)-4-fluoro-1H-pyrrolo[2,3-c]pyridine-2-carboxamide], the MIC is reported as 0.0087 µg/mL (≈ 0.0285 µM). C[Si]1(C)CCC(NC(=O)c2cc3c(Cl)cncc3[nH]2)CC1 [MPL-192, 4-chloro-N-(1,1-dimethylsilinan-4-yl)-1H-pyrrolo[2,3-c]pyridine-2-carboxamide] was tested, and the MIC was 0.0093 µg/mL (≈ 0.0289 µM). With COc1cc(F)cc2[nH]c(C(=O)NC3CC[Si](C)(C)CC3)cc12 [MPL-196, N-(1,1-dimethylsilinan-4-yl)-6-fluoro-4-methoxy-1H-indole-2-carboxamide] the MIC was 0.0048 µg/mL (≈ 0.0144 µM). For COc1cncc2[nH]c(C(=O)NC3CC[Si](C)(C)CC3)cc12 [MPL-202, N-(1,1-dimethylsilinan-4-yl)-4-methoxy-1H-pyrrolo[2,3-c]pyridine-2-carboxamide], the MIC was 0.11 µg/mL (≈ 0.346 µM). In the case of Cc1cc(F)c2cc(C(=O)NC3CC[Si](C)(C)CC3)[nH]c2n1 [MPL-207, N-(1,1-dimethylsilinan-4-yl)-4-fluoro-6-methyl-1H-pyrrolo[2,3-b]pyridine-2-carboxamide], the MIC is reported as 0.0045 µg/mL (≈ 0.0141 µM).

— patent US20230002372A1, “AZAINDOLE CARBOXAMIDE COMPOUNDS FOR THE TREATMENT OF MYCOBACTERIAL INFECTIONS” (THE GLOBAL ALLIANCE FOR TB DRUG DEVELOPMENT, INC., priority 2019, published 2023)
